One test addresses T1, SCD-1 (Homo sapiens, UniProt O00767).
T1 construct: endogenous in cells; host or cells: LNCaP, C4-2, PNT2 cells
T1 sequence (O00767 1-359): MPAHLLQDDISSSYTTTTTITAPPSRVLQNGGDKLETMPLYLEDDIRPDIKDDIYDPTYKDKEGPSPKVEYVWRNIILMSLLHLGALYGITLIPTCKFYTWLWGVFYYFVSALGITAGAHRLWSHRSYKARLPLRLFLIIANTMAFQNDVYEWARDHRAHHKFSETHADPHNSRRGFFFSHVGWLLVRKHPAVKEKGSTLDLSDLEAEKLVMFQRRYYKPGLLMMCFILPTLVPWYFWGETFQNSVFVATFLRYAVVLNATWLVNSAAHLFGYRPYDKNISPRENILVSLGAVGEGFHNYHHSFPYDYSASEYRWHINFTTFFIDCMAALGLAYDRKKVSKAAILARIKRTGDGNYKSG
Kind of test: Determination of SCD activity, [14C] palmitic to palmitoleic acid conversion in cells. It counts as cell-based. The following applies: all three cell lines (LNCaP, C4-2, PNT2), 25 μM. As to the method: Subconfluent LNCaP, C4-2, PNT2 of Ras SV40 MEFs cells grown in 6-wells plate were incubated with the tested inhibitor at 25 μM for 2 h in serum and fatty acid-free DMEM media supplemented 0.2% BSA. In this environment, the cells are solely dependent on endogenous fatty acid synthesis for production of storage, structural and signaling lipids. Trace amount of [^14C] palmitic acid were then added to the culture (0.5 μCi/well), and cells were incubated for 6 more hours. At the end of the incubation, total cell lipids were extracted and saponified, then released fatty acids were esterified with boron trifluoride in methanol for 90 min at 100° C. […] Air-dried plates were scanned on a Phosphorlmager and fatty acid spots on TLC were analysed with Phosphorlmager software. SCD activity was expressed as the ratio of palmitoleic on palmitic methyl ester acids and normalized to cellular DNA content.
The efficacy of the tested compound to inhibit SCD-1 activity has been evaluated by measuring the conversion of exogenous [^14C] saturated palmitic acid (16:0) to monounsaturated palmitoleic acid (16:1n-7). Moreover, the effects of inhibition of SCD-1 activity on lipid synthesis and proliferation in prostate cancer cell lines were analysed.

Another test concerns SCDs. Kind of test: Determination of SCD activity in transformed MEFs. The test is classed as cell-based, mouse. The following applies: 25 μM. As to the method: Subconfluent LNCaP, C4-2, PNT2 of Ras SV40 MEFs cells grown in 6-wells plate were incubated with the tested inhibitor at 25 μM for 2 h in serum and fatty acid-free DMEM media supplemented 0.2% BSA. In this environment, the cells are solely dependent on endogenous fatty acid synthesis for production of storage, structural and signaling lipids. Trace amount of [^14C] palmitic acid were then added to the culture (0.5 μCi/well), and cells were incubated for 6 more hours. At the end of the incubation, total cell lipids were extracted and saponified, then released fatty acids were esterified with boron trifluoride in methanol for 90 min at 100° C. The derived methyl esters were separated by argentation TLC (Thermo Fisher Scientific) following the procedure of Wilson and Sargen, using a solvent phase consisting of hexane:ethyl ether (90:10, by vol) (35). Pure stearic and oleic methyl ester acids were run in parallel to the samples. Air-dried plates were scanned on a Phosphorlmager and fatty acid spots on TLC were analysed with Phosphorlmager software. SCD activity was expressed as the ratio of palmitoleic on palmitic methyl ester acids and normalized to cellular DNA content.

Test [1] relates to β-catenin-Tcf4 complex in LNCaP cells. Nature of the test: TCF/LEF-1 reporter (pTOP-FLASH) luciferase assay. It counts as cell-based, human. The procedure: The transcriptional activity of the β-catenin-Tcf4 complex was analysed by performing transient transfections with 0.25 μg TCF/LEF-1 reporter (pTOP-FLASH) or control vector (pFOP-FLASH).
Luciferase activities in cell lysates were normalized relative to the β-galactosidase activity to correct for differences in transfection efficiency.

In the next test the test system is C4-2 tumor xenografts. Kind of test: Subcutaneous xenograft, curative treatment. The test is classed as in vivo, mice. The procedure:
(§1) Male athymic nude Mice (Foxn1 nu/nu) (Harlan, Grannat, France) were used at the age of 7 weeks (weight 25-30 g). All procedures were performed in compliance with the European Convention for the Protection of Vertebrate Animals Used for Experimentation (animal house agreement # B-34-172-27, authorization for animal experimentation #34.324). Experiments were done at least twice for each tested condition. Animals were sacrificed before they became compromised. Xenografts were established by subcutaneously injecting 2×10^6 LNCaP cells, 2×10^6 C4-2 cells or 5×10^5 MEFs SV40 in 100 μl of a Matrigel solution. For curative experiments, tumors were allowed to growth until they were measurable with a caliper. In each group, the mice were randomized and given SCD-1 inhibitor at 80 mg/kg in 100 μl of a labrafil-DMA-tween^80 solution (89:10:1) (treated group) or vehicle alone (control group), by daily intra-peritoneal (i.p.) injection 5 days of week. For preventive experiments, the mice were treated daily for 7 days before the day of xenograft. Tumor volume measurements were taken twice to three times a week and calculated according to the formula: length×width×height×0.5236. Data are expressed as the mean tumor volume or as fold of the start point tumor volume. For survival analysis, animals bearing pre-established C4-2 tumors were treated with BZ36 at 80 mg/kg or 160 mg/kg or with vehicle by daily i.p. injection 5 days of week. All mice were monitored for survival until tumor volume had reached 2000 mm^3 or until death. Analysis of survival was conducted by a log-rank test based on the Kaplan-Meier method. At euthanasia, tumors were excised and fixed in 4% formalin for immunohistological analyses.
(§2) Immunohistochemical analysis of SCD-1 expression was performed using high-density Tissue Microarray (TMA) slide (Accumax array) with 39 prostate adenocarcinoma spots from different patients (Gleason scores from 5 to 9) with corresponding normal tissues. Immunohistochemical analysis of pcna expression was performed on […] paraffin-embedded sections of LNCaP, C4-2 of Ras SV40 MEFs tumor xenografts. Briefly, after antigen retrieval, deparaffinized sections were blocked of Fc receptors with PBS containing 5% goat serum and then incubated with corresponding anti-SCD-1 mouse antibody, 1:50 (Abcam, Paris, France) or anti-pcna mouse antibody, 1:50 (Santa Cruz) in PBS-Tween 0.1%, overnight at 4° C. […] Sections were counterstained with Mayer's hematoxylin. […] Sections were mounted in mowiol and analysed rapidly.

The test system of a further test is LNCaP tumor xenografts. Kind of test: Subcutaneous xenograft, curative treatment. It counts as in vivo, mice. As to the method: as §1, §2
A further test deals with C4-2 tumors. Kind of test: Survival analysis of mice with pre-established C4-2 tumors. The test is classed as in vivo. As to conditions: for animals surviving at 14 days of treatment: control group 37.5%. The procedure: as §1
A further test concerns transformed MEFs. Nature of the test: Apoptosis, annexinV-FITC flow cytometry. The following applies: all transformed cells, 25 μM, 24 h. It counts as cell-based, mouse. As to the method:
Cells were then rinsed in PBS, pelleted at 400 g for 5 min and maintained on ice for 20 min before resuspension in a […] propidium iodide (Sigma) solution. Cells were kept overnight at 4° C. and the percentages of cells in G1, S and G2-M phases of the cell cycle were measured with a Coulter Epics XL™ flow cytometer (Becton Dickinson) using 488-nm laser excitation. For apoptosis experiment, MEFs were treated with the tested compound at 25 μM for 24 h, then rinced in PBS, pelleted at 400 g for 5 min and stained with annexinV-FITC (Roche Diagnostics, Meylan, France) for 15 min at 4° C. The percentage of annexin positive cells was immediately analysed using 488-nm laser excitation.

`COc1ccc(Br)c(C(=O)N2CCN(c3ccc(C(=O)NCCCc4ccccc4)cn3)CC2)c1` [BZ36]: on SCD-1, the “labelled monounsaturated palmitoleic acid vs control cells” value was “marked reduction”. Besides, the “[14C]-palmitoleic to palmitic methyl ester acids ratio” value with SCDs was “decreased lipogenesis”. In addition, in test [1], the “activity of a β-cat reporter” value is reported as “decreased activity”. The “mice with tumor volume increased more than 4-fold” value with C4-2 tumor xenografts (C4-2, 80 mg/kg, 42% of vehicle-treated mice) was 12%; with LNCaP tumor xenografts (LNCaP, 80 mg/kg, 42% of vehicle-treated mice), 18%. Also, the “xenografted mice with tumor regression” value in the test with C4-2 tumor xenografts (C4-2, 80 mg/kg, no regression in control mice) came out at 19%; in the test on LNCaP tumor xenografts (LNCaP, 80 mg/kg, no regression in control mice) it was 27%. For the same compound, the “tumor volume and tumor growth rate” value in the test with C4-2 tumor xenografts (C4-2 xenograft, 80 mg/kg i.p., vs vehicle) was “significantly reduced”; in the test with LNCaP tumor xenografts (LNCaP xenograft, 80 mg/kg i.p., vs vehicle), “significantly reduced”. In addition, the “decrease of proliferative tumor cells (PCNA immunostaining)” value was found to be 41% with C4-2 tumor xenografts (C4-2 xenografts, 80 mg/kg, vs control animals) and 50% in the test on LNCaP tumor xenografts (LNCaP xenografts, 80 mg/kg, vs control animals). Moreover, the “animal survival in comparison to vehicle control” value in the test with C4-2 tumors (80 mg/kg or 160 mg/kg, p=0.038) was “significant and dose-dependant prolongation”. Besides, the results for the “animals surviving at 14 days of treatment” value with C4-2 tumors (80 mg/kg) and in the test on C4-2 tumors (160 mg/kg) were 75% and 100%, respectively. Further, the median survival in the test on C4-2 tumors (80 mg/kg, control group 14 days) came out at 21 days. The “animals surviving at 28 days of treatment” value in the test with C4-2 tumors (160 mg/kg, control group 12.5%) turned out to be 75%. In addition, the “cell death (annexin V-positive cells)” value in the test on transformed MEFs is “strong induction of cell death”.

Source of the values: patent publication US20130012709A1, “NOVEL INHIBITORS OF STEAROYL-CoA-DESATURASE-1 AND THEIR USES” (CENTRE NATIONAL DE LA RECHERCHE SCIENTIFIQUE, priority 2009, published 2013).
